Entries after “also recorded” stand apart in the source; their conditions may differ.
Assays:
rhabdomyosarcoma cells = assay: Morphological imaging of treated cells; assay type: cell-based
Excerpt: Among the 64 compounds identified above, 33 compounds of unknown mechanism of action were identified.

RH30.19luc cells = assay: CRISPR/Cas9 genome-scale loss of function time course screen (GeCKOv2, TKOv3); assay type: cell-based; details: compared to DMSO
Procedure: To identify specific proteins targeted by PFI-63, a genome-scale loss of function time course screen was performed in RH30.19luc cells using two CRISPR/Cas9 libraries (GeCKOv2 and TKOv3) with and without treatment with PFI-63.

[1] = system: truncated KDM3B catalytic domain; assay: WaterLOGSY NMR binding assay; details: 300 μM; in the presence and in the absence of 2-OG
Excerpt: A WaterLOGSY assay and a Carr-Purcell Meiboom-Gill (CPMG) based assay were used to investigate protein-ligand binding affinity between PFI-90 and a truncated KDM3B catalytic domain.
In traditional proton NMR experiments, a series of peaks are generated that represent the structure of a solitary small molecule, whereas the WaterLOGSY experiment examines the behavior of a small molecule's peaks in the presence of a potential target. This is achieved by observing differences in interaction between a small molecule interacting with water co-occupying a binding cleft on a target as compared to water dispersed freely in solution. The experiment then depicts the ratio of bound to unbound small molecule by phasing proton NMR spectra on the X-axis in opposing directions depending on the magnitude of that ratio (i.e., increasing ratios above 1 will phase positively, decreasing ratios below 1 will phase negatively).

SMILES	cell morphology (rhabdomyosarcoma cells)	synthetic lethality of targets of histone lysine demethylases (RH30.19luc cells)	binding (WaterLOGSY) [1]
Cc1cc(C)cc(C(=O)NNC(=O)c2ccccn2)c1 [PFI-63]	elongation of cells	synthetically lethal	
O=C(NNc1ccccn1)c1ccccn1 [PFI-90]			found to bind; also recorded: binds

— patent publication US20230015647A1, “INHIBITORS OF HISTONE DEMETHYLASES (PFI-63 AND PFI-90) FOR THE TREATMENT OF CANCER AND FOR THE INHIBITION OF HISTONE DEMETHYLASE IN CELLS” (The United States of America,as represented by the …, priority 2019, published 2023)
